This passage reports IC50 and inhibition results from ChEMBL document CHEMBL3603797, “Factors that influence T box riboswitch efficacy and tRNA affinity” (Bioorg Med Chem, 2015).

Experiment [1] is described as follows: Binding affinity to Bacillus subtilis glyQS T box riboswitch mRNA assessed as inhibition of tRNAgly-induced glyQS transcription readthrough after 3 hrs by fluorescence assay.
Experiment [2] can be described thus: Inhibition of readthrough probe 5'Cy5-CGCAccuccacuuuucuuucauaaTGCG-Dabcyl3' binding to 5'UUAUGAAAGAAAAGUGGAGGUGC3' RNA (unknown origin) by fluorescence assay.

Calls of active or inactive are those of the source. No cut-off for these calls is given here.

Usually IC50 stands for the concentration that gives 50% inhibition. Turning to `CN(CCCc1ccccc1)Cc1cn(CC(O)COC(=O)NCc2ccccc2)nn1` (configuration not stated), in experiment [1], the IC50 was 8 µM. Further, the inhibition result in experiment [2] is “inactive”.
